Reference: patent publication US6358885B1, “Substituted phenylheterocyclic herbicides” (Mississippi State University, priority 1992, dated 2002)

What was measured:
Experiment in all cases: Test B preemergence/postemergence greenhouse plant response rating 0 to 10
[1] = system: purple nutsedge; type: in vivo, Cyperus rotundus; details: for Plant response rating, Nutsedge: 0 to 10 scale
In short: (§1)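 Test chemicals, dissolved in a non-phytotoxic solvent, were applied to soil at planting and, at the same time, over foliage of seedlings at the one to four leaf stage.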

[2] = system: giant foxtail; type: in vivo, Setaria faberii; details: for Plant response rating, Giant foxtail: 0 to 10 scale
In short: as §1

[3] = system: rice; type: in vivo, Oryza sativa; details: for Plant response rating, Rice: 0 to 10 scale
In short: as §1

[4] = system: sugar beet; type: in vivo, Beta vulgaris; details: for Plant response rating, Sugar beet: 0 to 10 scale
In short: as §1

[5] = system: barnyardgrass; type: in vivo, Echinochloa crus-galli; details: for Plant response rating, Barnyardgrass: 0 to 10 scale
In short: as §1

[6] = system: sorghum; type: in vivo, Sorghum bicolor; details: for Plant response rating, Sorghum: 0 to 10 scale
In short: as §1

[7] = system: corn; type: in vivo, Zea mays; details: for Plant response rating, Corn: 0 to 10 scale
In short: as §1

[8] = system: cotton; type: in vivo, Gossypium hirsutum; details: for Plant response rating, Cotton: 0 to 10 scale
In short: as §1

[9] = system: morningglory; type: in vivo, Ipomoea hederacea; details: for Plant response rating, Morningglory: 0 to 10 scale
In short: as §1

[10] = system: chickweed; type: in vivo, Stellaria media; details: for Plant response rating, Chickweed: 0 to 10 scale
In short: as §1

[11] = system: wheat; type: in vivo, Triticum aestivum; details: for Plant response rating, Wheat: 0 to 10 scale
In short: as §1

[12] = system: barley; type: in vivo, Hordeum vulgare; details: for Plant response rating, Barley: 0 to 10 scale
In short: as §1

[13] = system: blackgrass; type: in vivo, Alopecurus myosuroides; details: for Plant response rating, Blackgrass: 0 to 10 scale
In short: as §1

[14] = system: soybean; type: in vivo, Glycine max; details: for Plant response rating, Soybean: 0 to 10 scale
In short: as §1

[15] = system: bedstraw; type: in vivo, Galium aparine; details: for Plant response rating, Bedstraw: 0 to 10 scale
In short: as §1

[16] = system: cocklebur; type: in vivo, Xanthium pensylvanicum; details: for Plant response rating, Cocklebur: 0 to 10 scale
In short: as §1

[17] = system: lambsquarters; type: in vivo, Chenopodium album; details: for Plant response rating, Lambsquarter: 0 to 10 scale
In short: as §1

[18] = system: crabgrass; type: in vivo, Digitaria spp.; details: for Plant response rating, Crabgrass: 0 to 10 scale
In short: as §1

[19] = system: cheatgrass; type: in vivo, Bromus secalinus; details: for Plant response rating, Cheatgrass: 0 to 10 scale
In short: as §1

[20] = system: rape; type: in vivo, Brassica napus; details: for Plant response rating, Rape: 0 to 10 scale
In short: as §1

[21] = system: wild buckwheat; type: in vivo, Polygonum convolvulus; details: for Plant response rating, Wild buckwheat: 0 to 10 scale
In short: as §1

[22] = system: wild oat; type: in vivo, Avena fatua; details: for Plant response rating, Wild oat: 0 to 10 scale
In short: as §1

[23] = system: velvetleaf; type: in vivo, Abutilon theophrasti; details: for Plant response rating, Velvetleaf: 0 to 10 scale
In short: as §1

CCOC(=O)COc1cc(-c2nn3c(c2Cl)CCCC3)c(Cl)cc1Cl [Compound 73]
Plant response rating, Nutsedge ([1]; POSTEMERGENCE, Rate 50 g/ha): 2 | Plant response rating, Nutsedge ([1]; PREEMERGENCE, Rate 50 g/ha): 0 | Plant response rating (0 to 10 scale), Nutsedge ([1]; PREEMERGENCE, Rate 200 g/ha): 0 | Plant response rating, Nutsedge ([1]; Rate 200 g/ha, POSTEMERGENCE): 3 | Plant response rating, Giant foxtail ([2]; POSTEMERGENCE, Rate 50 g/ha): 5 | Plant response rating, Giant foxtail ([2]; PREEMERGENCE, Rate 50 g/ha): 0 | Plant response rating (0 to 10 scale), Giant foxtail ([2]; PREEMERGENCE, Rate 200 g/ha): 0 | Plant response rating, Giant foxtail ([2]; Rate 200 g/ha, POSTEMERGENCE): 5 | Plant response rating, Rice ([3]; POSTEMERGENCE, Rate 50 g/ha): 6 | Plant response rating, Rice ([3]; PREEMERGENCE, Rate 50 g/ha): 0 | Plant response rating (0 to 10 scale), Rice ([3]; PREEMERGENCE, Rate 200 g/ha): 0 | Plant response rating, Rice ([3]; Rate 200 g/ha, POSTEMERGENCE): 6 | Plant response rating, Sugar beet ([4]; POSTEMERGENCE, Rate 50 g/ha): 10 | Plant response rating, Sugar beet ([4]; PREEMERGENCE, Rate 50 g/ha): 5 | Plant response rating (0 to 10 scale), Sugar beet ([4]; PREEMERGENCE, Rate 200 g/ha): 5 | Plant response rating, Sugar beet ([4]; Rate 200 g/ha, POSTEMERGENCE): 10 | Plant response rating, Barnyardgrass ([5]; POSTEMERGENCE, Rate 50 g/ha): 7 | Plant response rating, Barnyardgrass ([5]; PREEMERGENCE, Rate 50 g/ha): 0 | Plant response rating (0 to 10 scale), Barnyardgrass ([5]; PREEMERGENCE, Rate 200 g/ha): 0 | Plant response rating, Barnyardgrass ([5]; Rate 200 g/ha, POSTEMERGENCE): 9 | Plant response rating, Sorghum ([6]; POSTEMERGENCE, Rate 50 g/ha): 4 | Plant response rating, Sorghum ([6]; PREEMERGENCE, Rate 50 g/ha): 0 | Plant response rating (0 to 10 scale), Sorghum ([6]; PREEMERGENCE, Rate 200 g/ha): 0 | Plant response rating, Sorghum ([6]; Rate 200 g/ha, POSTEMERGENCE): 5 | Plant response rating, Corn ([7]; POSTEMERGENCE, Rate 50 g/ha): 5 | Plant response rating, Corn ([7]; PREEMERGENCE, Rate 50 g/ha): 0 | Plant response rating (0 to 10 scale), Corn ([7]; PREEMERGENCE, Rate 200 g/ha): 0 | Plant response rating, Corn ([7]; Rate 200 g/ha, POSTEMERGENCE): 8 | Plant response rating, Cotton ([8]; POSTEMERGENCE, Rate 50 g/ha): 10 | Plant response rating, Cotton ([8]; PREEMERGENCE, Rate 50 g/ha): 0 | Plant response rating (0 to 10 scale), Cotton ([8]; PREEMERGENCE, Rate 200 g/ha): 0 | Plant response rating, Cotton ([8]; Rate 200 g/ha, POSTEMERGENCE): 10 | Plant response rating, Morningglory ([9]; POSTEMERGENCE, Rate 50 g/ha): 10 | Plant response rating, Morningglory ([9]; PREEMERGENCE, Rate 50 g/ha): 0 | Plant response rating (0 to 10 scale), Morningglory ([9]; PREEMERGENCE, Rate 200 g/ha): 0 | Plant response rating, Morningglory ([9]; Rate 200 g/ha, POSTEMERGENCE): 9 | Plant response rating, Chickweed ([10]; POSTEMERGENCE, Rate 50 g/ha): 2 | Plant response rating, Chickweed ([10]; PREEMERGENCE, Rate 50 g/ha): 2 | Plant response rating (0 to 10 scale), Chickweed ([10]; PREEMERGENCE, Rate 200 g/ha): 4 | Plant response rating, Chickweed ([10]; Rate 200 g/ha, POSTEMERGENCE): 3 | Plant response rating, Wheat ([11]; POSTEMERGENCE, Rate 50 g/ha): 2 | Plant response rating, Wheat ([11]; PREEMERGENCE, Rate 50 g/ha): 0 | Plant response rating (0 to 10 scale), Wheat ([11]; PREEMERGENCE, Rate 200 g/ha): 2 | Plant response rating, Wheat ([11]; Rate 200 g/ha, POSTEMERGENCE): 4 | Plant response rating, Barley ([12]; POSTEMERGENCE, Rate 50 g/ha): 2 | Plant response rating, Barley ([12]; PREEMERGENCE, Rate 50 g/ha): 0 | Plant response rating (0 to 10 scale), Barley ([12]; PREEMERGENCE, Rate 200 g/ha): 0 | Plant response rating, Barley ([12]; Rate 200 g/ha, POSTEMERGENCE): 3 | Plant response rating, Blackgrass ([13]; POSTEMERGENCE, Rate 50 g/ha): 5 | Plant response rating, Blackgrass ([13]; PREEMERGENCE, Rate 50 g/ha): 0 | Plant response rating (0 to 10 scale), Blackgrass ([13]; PREEMERGENCE, Rate 200 g/ha): 0 | Plant response rating, Blackgrass ([13]; Rate 200 g/ha, POSTEMERGENCE): 5 | Plant response rating, Soybean ([14]; POSTEMERGENCE, Rate 50 g/ha): 2 | Plant response rating, Soybean ([14]; PREEMERGENCE, Rate 50 g/ha): 0 | Plant response rating (0 to 10 scale), Soybean ([14]; PREEMERGENCE, Rate 200 g/ha): 0 | Plant response rating, Soybean ([14]; Rate 200 g/ha, POSTEMERGENCE): 5 | Plant response rating, Bedstraw ([15]; POSTEMERGENCE, Rate 50 g/ha): 7 | Plant response rating, Bedstraw ([15]; PREEMERGENCE, Rate 50 g/ha): 2 | Plant response rating (0 to 10 scale), Bedstraw ([15]; PREEMERGENCE, Rate 200 g/ha): 9 | Plant response rating, Bedstraw ([15]; Rate 200 g/ha, POSTEMERGENCE): 8 | Plant response rating, Cocklebur ([16]; POSTEMERGENCE, Rate 50 g/ha): 8 | Plant response rating, Cocklebur ([16]; PREEMERGENCE, Rate 50 g/ha): 0 | Plant response rating (0 to 10 scale), Cocklebur ([16]; PREEMERGENCE, Rate 200 g/ha): 0 | Plant response rating, Cocklebur ([16]; Rate 200 g/ha, POSTEMERGENCE): 10 | Plant response rating, Lambsquarter ([17]; POSTEMERGENCE, Rate 50 g/ha): 9 | Plant response rating, Lambsquarter ([17]; PREEMERGENCE, Rate 50 g/ha): 9 | Plant response rating (0 to 10 scale), Lambsquarter ([17]; PREEMERGENCE, Rate 200 g/ha): 10 | Plant response rating, Lambsquarter ([17]; Rate 200 g/ha, POSTEMERGENCE): 10 | Plant response rating, Crabgrass ([18]; POSTEMERGENCE, Rate 50 g/ha): 3 | Plant response rating, Crabgrass ([18]; PREEMERGENCE, Rate 50 g/ha): 0 | Plant response rating (0 to 10 scale), Crabgrass ([18]; PREEMERGENCE, Rate 200 g/ha): 0 | Plant response rating, Crabgrass ([18]; Rate 200 g/ha, POSTEMERGENCE): 6 | Plant response rating, Cheatgrass ([19]; POSTEMERGENCE, Rate 50 g/ha): 3 | Plant response rating, Cheatgrass ([19]; PREEMERGENCE, Rate 50 g/ha): 0 | Plant response rating (0 to 10 scale), Cheatgrass ([19]; PREEMERGENCE, Rate 200 g/ha): 2 | Plant response rating, Cheatgrass ([19]; Rate 200 g/ha, POSTEMERGENCE): 6 | Plant response rating, Rape ([20]; POSTEMERGENCE, Rate 50 g/ha): 7 | Plant response rating, Rape ([20]; PREEMERGENCE, Rate 50 g/ha): 2 | Plant response rating (0 to 10 scale), Rape ([20]; PREEMERGENCE, Rate 200 g/ha): 2 | Plant response rating, Rape ([20]; Rate 200 g/ha, POSTEMERGENCE): 10 | Plant response rating, Wild buckwheat ([21]; POSTEMERGENCE, Rate 50 g/ha): 10 | Plant response rating, Wild buckwheat ([21]; PREEMERGENCE, Rate 50 g/ha): 0 | Plant response rating (0 to 10 scale), Wild buckwheat ([21]; PREEMERGENCE, Rate 200 g/ha): 3 | Plant response rating, Wild buckwheat ([21]; Rate 200 g/ha, POSTEMERGENCE): 10 | Plant response rating, Wild oat ([22]; POSTEMERGENCE, Rate 50 g/ha): 1 | Plant response rating, Wild oat ([22]; PREEMERGENCE, Rate 50 g/ha): 0 | Plant response rating (0 to 10 scale), Wild oat ([22]; PREEMERGENCE, Rate 200 g/ha): 2 | Plant response rating, Wild oat ([22]; Rate 200 g/ha, POSTEMERGENCE): 1 | Plant response rating, Velvetleaf ([23]; POSTEMERGENCE, Rate 50 g/ha): 6 | Plant response rating, Velvetleaf ([23]; PREEMERGENCE, Rate 50 g/ha): 2 | Plant response rating (0 to 10 scale), Velvetleaf ([23]; PREEMERGENCE, Rate 200 g/ha): 7 | Plant response rating, Velvetleaf ([23]; Rate 200 g/ha, POSTEMERGENCE): 9
